From article PMC10143232, “Dihydropyrimidone Derivatives as Thymidine Phosphorylase Inhibitors: Inhibition Kinetics, Cytotoxicity, and Molecular Docking” (Molecules, 2023)
“Also recorded” adds a separate entry of the source.

Tests used:
[1] = biological target: T1, Thymidine phosphorylase (TP) (Escherichia coli, UniProt P07650); assay: Mechanistic (kinetic) studies of TP inhibition; type: biochemical; details: E. coli TP; for Type of Inhibition: Lineweaver–Burk, Dixon plots; for Ki: inhibitor 200–500 µM, thymidine 0.1875–1.5 mM, read-out: Ki ± SEM
T1 construct: purchased Sigma Aldrich, USA
T1 sequence (P07650 whole entry): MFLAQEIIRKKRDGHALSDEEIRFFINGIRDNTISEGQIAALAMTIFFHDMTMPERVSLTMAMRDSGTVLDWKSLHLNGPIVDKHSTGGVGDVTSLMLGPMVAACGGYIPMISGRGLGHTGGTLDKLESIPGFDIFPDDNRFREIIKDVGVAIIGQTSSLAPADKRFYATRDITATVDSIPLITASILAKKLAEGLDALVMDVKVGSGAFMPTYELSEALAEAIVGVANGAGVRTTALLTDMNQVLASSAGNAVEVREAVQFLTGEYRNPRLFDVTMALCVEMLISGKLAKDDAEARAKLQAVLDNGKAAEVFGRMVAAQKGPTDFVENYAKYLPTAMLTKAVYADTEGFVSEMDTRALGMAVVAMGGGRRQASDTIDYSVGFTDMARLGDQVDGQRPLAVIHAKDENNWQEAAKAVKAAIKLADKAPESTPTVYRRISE
Excerpt: Kinetic studies are used for the investigation of chemical reactions in terms of their reaction rates, reaction mechanisms, and the factors that affect these parameters. Herein, it is used determine the type/mechanism of inhibition of dihydropyrimidone derivatives.
(§1) EZ-FIT, enzyme kinetics software (Perrella Scientific, Inc., Amherst, GA, USA) was used to calculate the IC50 values. In order to analyse the kinetic parameter, Grafit version 7.0 (Erithacus Software Ltd., Horley, UK) was used.

[2] = biological target: T1, Thymidine phosphorylase (TP); assay: Thymidine phosphorylase inhibition assay (spectrophotometric, 290 nm); type: biochemical, E. coli; details: for inhibition at 500 µM: pH 7, E. coli TP, test compound 10 µL of 0.5 mM in 200 µL, thymidine substrate, 30 °C, pH 7.0, read-out: Thymidine Phosphorylase Inhibitory Activity % Inhibition; for IC50: E. coli TP, n = 3, NA: not active, read-out: Thymidine Phosphorylase Inhibitory Activity IC50 ± SEM
Protocol: Thymidine phosphorylase (source: E. coli, EC Number 2.4.2.4), thymidine (substrate), and potassium phosphate monobasic (as buffer) were acquired from Sigma Aldrich, USA. […] Dimethylsulfoxide (DMSO), used as a solvent, was obtained from Fisher Scientific, Schwerte, Germany.
Reaction was performed in 96-well plates and in triplicates. The 200 µL reaction mixture was comprised of 10 µL of the test compound (0.5 mM; dissolved in DMSO), 150 µL of potassium phosphate buffer (pH 7.0, 50 mM), and 20 µL of TP enzyme (0.058 unit/well). The 96-well plate containing all these reagents was then incubated at 30 °C for 10 min.
SoftMax Pro 4.8 software (Molecular Devices, San Jose, CA, USA) was used to analyse the results.
as §1

[3] = system: 3T3 (mouse fibroblast) cell line; assay: MTT cytotoxicity assay; type: cell-based
Protocol: (§2) Cytotoxicity of active compounds were evaluated employing a standard MTT calorimetric assay. Mouse fibroblast (3T3 cell line) acquired from American Type Culture Collection (ATCC), Virginia, USA, was cultured in DMEM (Dulbecco’s modified eagle medium). In total, 5% FBS (fetal bovine serum), penicillin (100 IU/mL), and streptomycin ([…]) were then added to the medium in […] flasks, and kept in a CO2 incubator at 37 °C. The harvested cell was then diluted with a specific medium. Haemocytometer was used for the quantification of cells. After that, the culture of cell having concentration of 5x104 (cells/mL) was prepared, inoculated into 96-well plates (100 µL/well), and then incubated overnight. After incubation, the old medium was removed, and fresh medium (200 µL) was added. Then different concentrations of test compounds (ranging from 1 to 30 µM) were added. After incubation of 48 h, each well received 200 µL of MTT dye (0.5 mg/mL), and further incubated for a duration of 4 h. After 4 h, 100 µL of DMSO was introduced into each well of the 96-well plate. The reduction of MTT to formazan was measured by recording absorbance at 540 nm with the help of a microplate reader (SpectraMax 384, Molecular Devices, San Jose, CA, USA).

MTT cytotoxicity assay = type: cell-based; details: 3T3 mouse fibroblast cells, 48 h, test compounds 1 to 30 µM, NC: non-cytotoxic, read-out: Cytotoxicity Studies Cell Viability (%)
Protocol: as §2

E. coli TP = system: E. coli TP; design: method as in earlier work; details: read-out: 50% inhibitory concentration (IC50); purified E. coli TP; conversion of dThd to Thy; ref [5]; cited from earlier work

| Structure (SMILES) | Type of Inhibition [1] | inhibition at 500 µM [2] [%] | Ki [1] [µM] | Cytotoxicity against 3T3 cells (in words) [3] | viability at 48 h (MTT cytotoxicity assay) [%] | IC50 [2] [µM] | IC50 (E. coli TP) [µM] |
| --- | --- | --- | --- | --- | --- | --- | --- |
| O=c1[nH]c(=O)c2cc[nH]c2[nH]1 [7-Deazaxanthine, reference compound] | Non-Competitive | 82 |  |  |  |  |  |
| COC(=O)C1=C(C)NC(=O)NC1c1ccccc1 (stereo not drawn) [Compound 1, Methyl 6-methyl-2-oxo-4-phenyl-1,2,3,4-tetrahydropyrimidine-5-carboxylate] | Non-Competitive | 84 | 326.3 ± 0.002 | non-cytotoxic; also recorded: non-toxic | 57 | 314.3 ± 0.9 |  |
| COC(=O)C1=C(C)NC(=O)NC1c1ccc([N+](=O)[O-])cc1 (stereo not drawn) [Compound 12, Methyl 6-methyl-4-(4-nitrophenyl)-2-oxo-1,2,3,4-tetrahydropyrimidine-5-carboxylate] | Non-Competitive | 91.5 | 297.6 ± 0.006 | non-cytotoxic; also recorded: non-toxic | 57 | 303.5 ± 0.4 |  |
| COC(=O)C1=C(C)NC(=O)NC1c1ccc(N(C)C)cc1 (stereo not drawn) [Compound 26, Methyl 4-(4-(dimethylamino)phenyl)-6-methyl-2-oxo-1,2,3,4-tetrahydropyrimidine-5-carboxylate] |  | 92.3 |  |  | 57 | 350 ± 3.7 |  |
| COC(=O)C1=C(C)NC(=O)NC1c1ccc(O)c(Cl)c1 (stereo not drawn) [Compound 28, Methyl 4-(3-chloro-4-hydroxyphenyl)-6-methyl-2-oxo-1,2,3,4-tetrahydropyrimidine-5-carboxylate] |  | 67.5 |  |  | 95 | 404.6 ± 1 |  |
| COC(=O)C1=C(C)NC(=O)NC1c1ccc(OC(C)=O)c(OC)c1 (stereo not drawn) [Compound 29, Methyl 4-(4-acetoxy-3-methoxyphenyl)-6-methyl-2-oxo-1,2,3,4-tetrahydropyrimidine-5-carboxylate] |  | 76 |  |  | 80 | 400.5 ± 0.6 |  |
| COC(=O)C1=C(C)NC(=O)NC1c1cc(OC)c(O)c(OC)c1 (stereo not drawn) [Compound 30, Methyl 4-(4-hydroxy-3,5-dimethoxyphenyl)-6-methyl-2-oxo-1,2,3,4-tetrahydropyrimidine-5-carboxylate] |  | 69.6 |  |  | 75 | 396.7 ± 1.5 |  |
| COC(=O)C1=C(C)NC(=O)NC1c1ccc(C)s1 (stereo not drawn) [Compound 32, Methyl 6-methyl-4-(5-methylthiophen-2-yl)-2-oxo-1,2,3,4-tetrahydropyrimidine-5-carboxylate] |  | 58.3 |  |  | 85 | 485.7 ± 1.5 |  |
| COC(=O)C1=C(C)NC(=O)NC1c1ccc(C(F)(F)F)cc1 (stereo not drawn) [Compound 33, Methyl 6-methyl-2-oxo-4-(4-(trifluoromethyl)phenyl)-1,2,3,4-tetrahydropyrimidine-5-carboxylate] | Non-Competitive | 73.6 | 311.4 ± 0.004 | non-cytotoxic; also recorded: non-toxic | 61 | 322.6 ± 1.6 |  |
| COC(=O)C1=C(C)NC(=O)NC1c1ccc(Cl)cc1 (stereo not drawn) [Compound 34, Methyl 4-(4-chlorophenyl)-6-methyl-2-oxo-1,2,3,4-tetrahydropyrimidine-5-carboxylate] |  | 66.3 |  |  | 72 | 443.9 ± 0.9 |  |
| Oc1ncnc2c1ncn2[C@@H]1O[C@H](COC(c2ccccc2)(c2ccccc2)c2ccccc2)[C@@H](O)[C@H]1O [KIN59, 5′-O-tritylinosine] |  |  |  |  |  |  | 44 ± 3 |
